# Earlier results, collected in patent publication US11751566B2, “Growth regulator concentrate and use thereof” (FINE AGROCHEMICALS LIMITED, priority 2013, dated 2023).
SMILES,"solubility in organic polar solvent (solution as generally provided) (organic polar solvent, like an alcohol)",solubility in solvents (including water)
"C=C1C[C@]23C[C@@]1(O)CC[C@H]2[C@@]12C=C[C@H](O)[C@@](C)(C(=O)O1)[C@H]2[C@@H]3C(=O)O [GA3, Gibberellic acid]",3-4 wt %,–
CCC(=O)C1C(=O)CC(C(=O)O)CC1=O (centres unmarked) [Prohexadione],–,low solubility
